Data from the METLIN SMRT retention time set (Domingo-Almenara et al. 2019).

Assay: gradient 5% acetonitrile 3 min, to 50% in 2 min, to 85% in 15 min, held 3 min, 100 µL/min
Settings: column: Zorbax Extend-C18 2.1 x 50 mm; eluents: water / acetonitrile, 0.1% formic acid
Outline: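 Retention times come from adduct peaks that were picked computationally and then checked by hand. The standards, pure and pooled in mixtures of ~100 molecules, were run on a Zorbax Extend-C18 column (2.1 × 50 mm, 1.8 μm) at 100 μL/min with water and acetonitrile, each with 0.1% formic acid. Detection was by quadrupole time-of-flight mass spectrometry in positive and negative ionization mode, with a dead volume of 40 μL and a dwell volume of 900 μL.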

Structure (SMILES): Cc1ccc(-n2nc(N3CCN(C(=O)c4ccc(Br)o4)CC3)ccc2=O)cc1C
- RP-LC retention time: 875 s

Structure (SMILES): Cc1c(-c2cccc(NC(=O)C3CCCCC3)c2)nc2ncccn12
- RP-LC retention time: 663 s

Structure (SMILES): CCCNC(=O)C1CCCN(c2nc3ncn(CC(=O)N4CCc5ccccc5C4)c(=O)c3s2)C1 (configuration not stated)
- RP-LC retention time: 705 s

Structure (SMILES): CCOC(=O)COC(=O)c1cn(-c2ccc(CC)cc2)c(=O)c2ccccc12
- RP-LC retention time: 737 s

Structure (SMILES): O=C(Cc1csc(-n2cccc2)n1)Nc1ccc(-n2cnnn2)cc1
- RP-LC retention time: 731 s

Structure (SMILES): CCN1CCN(Cc2ccc(NC3=NS(=O)(=O)C(c4ccc(OC)cc4)=C3C)cc2)CC1
- RP-LC retention time: 622 s

Structure (SMILES): CC(C(=O)NC1CCN(Cc2ccccc2)CC1)n1c(=O)c(C(F)(F)F)nc2ccccc21 (configuration not stated)
- RP-LC retention time: 731 s

Structure (SMILES): COc1cccc(-c2cc(C(N)=O)n(C)n2)c1
- RP-LC retention time: 646 s

Structure (SMILES): CNc1nc(Nc2ccc(OC)cc2)nc2ccccc12
- RP-LC retention time: 641 s

Structure (SMILES): COC(=O)c1[nH]c(C)c(C(=O)C(C)N(CC(C)C)C(=O)c2ccc(OC)cc2)c1C (configuration not stated)
- RP-LC retention time: 859 s

Structure (SMILES): CCOc1cc(-c2ccccc2)nc2ccc(NC(=O)NCC(=O)OC)cc12
- RP-LC retention time: 651 s

Structure (SMILES): O=C(C1CCN(S(=O)(=O)c2cc(-c3noc(C4CC4)n3)cs2)CC1)N1CCOCC1
- RP-LC retention time: 793 s

Structure (SMILES): CCOc1ccccc1C(=O)N1CCC2(CC1)NCc1ccccc1-n1ccnc12
- RP-LC retention time: 572 s

Structure (SMILES): COc1ccc(NC(=O)Cn2c(=O)c3cc(C4CC4)nn3c3ncccc32)c(OC)c1
- RP-LC retention time: 772 s

Structure (SMILES): CO[C@H]1CN(C2CCN(S(=O)(=O)Cc3ccccc3)CC2)[C@H]1c1ccncc1
- RP-LC retention time: 612 s

Structure (SMILES): COc1ccc(-c2nc(Cn3c(C)cc(C)c(-c4nc(-c5ccccc5)no4)c3=O)c(C)o2)cc1
- RP-LC retention time: 1230 s

Structure (SMILES): CCn1ccc(C(=O)N2CCN(c3cc(-c4ccccc4)[nH]n3)CC2)n1
- RP-LC retention time: 689 s

Structure (SMILES): Cc1nc2cc(N3CC(C(=O)Nc4ccc(F)c(C)c4)CC3=O)ccc2o1 (configuration not stated)
- RP-LC retention time: 753 s

Structure (SMILES): NS(=O)(=O)c1ccc(NC(=O)NC2CC(=O)N(c3ccc(Cl)cc3)C2)cc1 (configuration not stated)
- RP-LC retention time: 657 s

Structure (SMILES): CCOc1ccccc1CNC(=O)C1CCN(C(=O)C2Sc3ccccc3NC2=O)CC1 (configuration not stated)
- RP-LC retention time: 779 s

Structure (SMILES): CCCNC(=O)N1CCCC(c2nn[nH]n2)C1 (configuration not stated)
- RP-LC retention time: 590 s

Structure (SMILES): Cc1ccc(S(=O)(=O)c2cnc(N3CCN(c4ccccc4Cl)CC3)nc2N)cc1
- RP-LC retention time: 1230 s

Structure (SMILES): Cc1ccccc1-c1noc(-c2nn(-c3ccc(Cl)cc3)ccc2=O)n1
- RP-LC retention time: 1010 s

Structure (SMILES): Cc1cc(NCCCn2ccnc2)n2nc(C(F)(F)F)c(-c3ccccc3)c2n1
- RP-LC retention time: 591 s

Structure (SMILES): Cc1nn2c(S(=O)(=O)N3CCSCC3)c(C(C)C)nc2s1
- RP-LC retention time: 862 s

Structure (SMILES): COc1cc(OC)c(NC(=O)NCC(c2cccnc2)c2c[nH]c3ccccc23)cc1Cl (configuration not stated)
- RP-LC retention time: 706 s

Structure (SMILES): O=C(NC1CCN(Cc2ccccc2)CC1)C1CCCN(c2ncc(-c3ccc(F)cc3)cn2)C1 (configuration not stated)
- RP-LC retention time: 744 s

Structure (SMILES): Cc1ccc(S(=O)(=O)CCc2noc(C(=O)NCCCN3CCCC(C)C3)n2)cc1 (configuration not stated)
- RP-LC retention time: 632 s

Structure (SMILES): CCOc1ccc(-c2nc(C3CC(=O)N(c4ccc(Cl)cc4)C3)no2)cc1 (configuration not stated)
- RP-LC retention time: 1130 s

Structure (SMILES): COc1cccc(NS(=O)(=O)c2cc(-c3[nH]ncc3C(=O)N3CCCCC3)oc2C)c1
- RP-LC retention time: 721 s

Structure (SMILES): Cc1ccc(CNC(=O)c2cccc(-c3nc4cccnc4n3C)c2)o1
- RP-LC retention time: 722 s

Structure (SMILES): Cc1cccc(N2CCN(C(=O)Cn3c(=O)c4nnc(C)n4c4ncccc43)CC2)c1
- RP-LC retention time: 738 s

Structure (SMILES): CCOc1ccc(-c2csc3c(=O)n(Cc4ccc(N5CCCC5=O)cc4)cnc23)cc1OCC
- RP-LC retention time: 929 s

Structure (SMILES): CCS(=O)(=O)c1nc2ccc(NS(=O)(=O)c3ccc(C4CCCCC4)cc3)cc2s1
- RP-LC retention time: 1120 s

Structure (SMILES): O=C(Cc1cccnc1)N1CCCn2nc(-c3ccc(F)cc3)cc2C1
- RP-LC retention time: 537 s

Structure (SMILES): CCOC(=O)c1cccc(Nc2nc(C(=O)OCC)nc3ccccc23)c1
- RP-LC retention time: 870 s

Structure (SMILES): CCCCn1c(CNC(=O)c2cccs2)nnc1SCC(=O)OCC
- RP-LC retention time: 713 s

Structure (SMILES): CN1CCN(CCNC(=O)c2ccc3c(c2)N(C)C(=O)C2CCCCN32)CC1 (configuration not stated)
- RP-LC retention time: 572 s

Structure (SMILES): Cc1cc(NS(=O)(=O)c2cn(C(C)C)c3ncccc23)ccc1F
- RP-LC retention time: 948 s

Structure (SMILES): COc1ccc(C(CNC(=O)c2cc(=O)c3ccccc3o2)N(C)C)cc1 (configuration not stated)
- RP-LC retention time: 607 s

Structure (SMILES): CCOC(=O)c1cc(C)nc2c1c(=O)n(Cc1cccc(C)c1)c(=O)n2C
- RP-LC retention time: 1130 s

Structure (SMILES): c1ccc(-c2ccc3c(c2)NCCN3)cc1
- RP-LC retention time: 650 s

Structure (SMILES): COC(=O)c1cnc2nc(C)ccc2c1NCc1cccc(Cl)c1
- RP-LC retention time: 733 s

Structure (SMILES): COCCn1cc(C(=O)Nc2cccc(C(C)=O)c2)c2nn(-c3ccccc3)c(=O)c-2c1
- RP-LC retention time: 812 s

Structure (SMILES): COc1ccc(N2CCN(C(=O)c3ccc(=O)n(CCN4CCOCC4)c3)CC2)cc1
- RP-LC retention time: 578 s

Structure (SMILES): CN1c2cc(F)ccc2C(=O)NC12CCN(C(=O)Nc1ccccc1F)CC2
- RP-LC retention time: 735 s

Structure (SMILES): O=S(=O)(c1cccc(F)c1)N1CC(F)(F)C[C@H]1CN1CCc2ccccc2C1
- RP-LC retention time: 733 s

Structure (SMILES): Cc1cc(C)cc(NC(=O)C2CCN(S(=O)(=O)c3ccc4[nH]c(=O)sc4c3)CC2)c1
- RP-LC retention time: 851 s

Structure (SMILES): Cc1cccc(-c2noc(C3CCCN3C(=O)NCCc3ccccc3)n2)c1 (configuration not stated)
- RP-LC retention time: 593 s

Structure (SMILES): Clc1ccc(OCc2nn3c(CSc4ccccc4)nnc3s2)cc1
- RP-LC retention time: 1040 s

Structure (SMILES): COc1ccc2[nH]cc(CCNC(=O)CN3C(=O)CCn4nc(-c5cn(C)c6ccccc56)cc43)c2c1
- RP-LC retention time: 797 s

Structure (SMILES): Cc1cnc(-c2ccncc2)n1CC1CN(S(=O)(=O)c2ccc3c(c2)CCC3)C1
- RP-LC retention time: 651 s

Structure (SMILES): CCOc1ccc(-n2nnnc2CNC(=O)CCCN2C(=O)c3ccccc3C2=O)cc1
- RP-LC retention time: 734 s

Structure (SMILES): CCn1c(N2CCCC(C(=O)NCc3cccc(C)c3)C2)cc(=O)n(C)c1=O (configuration not stated)
- RP-LC retention time: 824 s

Structure (SMILES): CC(C)(C)c1ccc(O)c(CN(Cc2cc(C(C)(C)C)ccc2O)C2CCCCC2)c1
- RP-LC retention time: 1020 s

Structure (SMILES): CC1CCCCN1CCNC(=O)c1c2c(cn(-c3ccc(F)cc3)c1=O)C(=O)CC(C)(C)C2 (configuration not stated)
- RP-LC retention time: 675 s

Structure (SMILES): CCCNC(=O)N1C[C@@H]2C(=O)N(Cc3ccc4c(c3)OCO4)C(=O)[C@@H]2C1
- RP-LC retention time: 708 s

Structure (SMILES): O=C(Nc1ccc(Br)cc1)C1CCN(c2cc(N3CCCC3)ncn2)CC1
- RP-LC retention time: 721 s

Structure (SMILES): COCc1noc([C@@H]2CC(F)(F)CN2C(=O)CC(C)(C)C)n1
- RP-LC retention time: 830 s

Structure (SMILES): CCOc1ccc(C(=O)N2CCC[C@@H]2C(=O)NCCc2csc(C)n2)cc1
- RP-LC retention time: 846 s

Structure (SMILES): CCCn1c(=O)c(-c2ccc(C(=O)NCC(C)C)cc2)nc2cccnc21
- RP-LC retention time: 967 s

Structure (SMILES): Cc1cccc2c3c(ccc12)C1=C(C(=O)C3=O)[C@@H](C)CO1
- RP-LC retention time: 1200 s

Structure (SMILES): CC(C)OC(=O)COC(=O)c1cn(-c2cccc(F)c2)c(=O)c2ccccc12
- RP-LC retention time: 1110 s

Structure (SMILES): COCCCNc1nc(-c2ccc(C(C)(C)C)cc2)nc2ccccc12
- RP-LC retention time: 843 s

Structure (SMILES): Cc1nc(-c2ccc(NC(=O)N3CCN(c4ccc(F)cc4)CC3)cc2)no1
- RP-LC retention time: 859 s

Structure (SMILES): COCCCn1c(=O)c2ccccc2n(Cc2nc(-c3ccccc3)no2)c1=O
- RP-LC retention time: 994 s

Structure (SMILES): Cc1ccc2[nH]cc(CCN3CC(C(=O)N4CCCCC4)CC3=O)c2c1 (configuration not stated)
- RP-LC retention time: 768 s

Structure (SMILES): CCN1C(=O)c2cccnc2Sc2cc(NC(=O)c3ccn(CC)n3)ccc21
- RP-LC retention time: 738 s

Structure (SMILES): Cc1noc(C)c1S(=O)(=O)N1CCC2(CC1)CC(Cc1ccc(F)cc1)CCO2 (configuration not stated)
- RP-LC retention time: 1150 s

Structure (SMILES): CCOC(=O)c1cnc2nc(C)ccc2c1Nc1ccc(OC)cc1OC
- RP-LC retention time: 702 s

Structure (SMILES): CN1C(=O)CCc2cc(NC(=O)c3cccs3)ccc21
- RP-LC retention time: 671 s

Structure (SMILES): Cn1ncc2c3ccccc3n(CC(=O)NCc3ccc4c(c3)OCO4)c2c1=O
- RP-LC retention time: 792 s

Structure (SMILES): COc1ccc(-c2nnc(-c3ccccc3)o2)cc1S(=O)(=O)NC(C)(C)CO
- RP-LC retention time: 759 s

Structure (SMILES): O=C(CN1CCCc2nc(C3CC3)ncc2C1=O)NCCN1CCOCC1
- RP-LC retention time: 554 s

Structure (SMILES): Cc1oc(-c2[nH]ncc2C(=O)N(C)C)cc1S(=O)(=O)NCCN1CCOCC1
- RP-LC retention time: 543 s

Structure (SMILES): COc1cc(OC)c(NC(=O)CCSc2nc3c(=O)n(C)c(=O)n(C)c3n2C)cc1Cl
- RP-LC retention time: 735 s

Structure (SMILES): Cc1ccccc1N1CCN(C(=O)c2ccc3c(c2)CC(=O)N3C)CC1
- RP-LC retention time: 839 s

Structure (SMILES): CC(C)(C)OC(=O)N1CCN(c2ncc(C(=O)NCc3ccccc3)c(N)n2)CC1
- RP-LC retention time: 743 s

Structure (SMILES): Cc1[nH]nc(-c2c(C)sc(C)c2S(=O)(=O)NCC(C)c2ccccc2)c1C (configuration not stated)
- RP-LC retention time: 1090 s

Structure (SMILES): Cc1nc(CSc2nc3cc([N+](=O)[O-])ccc3s2)cs1
- RP-LC retention time: 916 s

Structure (SMILES): CNC(=O)c1ccc(C)c(-n2c(C)cc(OCc3ccc(F)cc3F)c(Br)c2=O)c1
- RP-LC retention time: 818 s

Structure (SMILES): Cc1cc(-n2cc(C(=O)N3CCC(NC(=O)Cc4cccs4)CC3)nn2)ccc1F
- RP-LC retention time: 746 s

Structure (SMILES): CS(=O)(=O)c1ccc(Nc2nc(C(=O)Nc3ccc(F)c(Cl)c3)cs2)cc1
- RP-LC retention time: 843 s

Structure (SMILES): CC(NC(=O)CCc1ccc2[nH]ccc2c1)c1ccccc1 (configuration not stated)
- RP-LC retention time: 812 s

Structure (SMILES): O=C(NCc1ccc(F)cc1)c1ccc2c(c1)nc1n2CCN(Cc2ccccc2)C1=O
- RP-LC retention time: 775 s

Structure (SMILES): CC(C)N1C(=O)c2cccnc2Sc2cc(C(=O)NCC3CCCO3)ccc21 (configuration not stated)
- RP-LC retention time: 695 s

Structure (SMILES): CC(=O)c1sc(NC(=O)c2cc(Cl)ccc2Cl)nc1C
- RP-LC retention time: 817 s
